Assays:
[1] = biological target: T1, human recombinant cathepsin K (Homo sapiens, UniProt P43235); test: Determination of cathepsin K proteolytic catalytic activity (Ki); format: biochemical
T1 construct: made in house; host or cells: not fixed: E coli, Pichia or Baculovirus systems named as options
T1 sequence (P43235 115-329): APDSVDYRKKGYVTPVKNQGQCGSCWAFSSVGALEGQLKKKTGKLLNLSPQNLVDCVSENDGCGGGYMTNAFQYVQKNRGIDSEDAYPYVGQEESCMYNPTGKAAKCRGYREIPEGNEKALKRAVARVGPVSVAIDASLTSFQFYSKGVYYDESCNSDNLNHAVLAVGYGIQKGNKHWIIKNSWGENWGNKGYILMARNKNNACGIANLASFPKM
Method: Convenient assays for cathepsin K are carried out using human recombinant enzyme, such as that described in PDB.
The recombinant cathepsin K can be expressed in a variety of commercially available expression systems including E coli, Pichia and Baculovirus systems. The purified enzyme is activated by removal of the prosequence by conventional methods.
Standard assay conditions for the determination of kinetic constants used a fluorogenic peptide substrate, typically H-D-Ala-Leu-Lys-AMC, and were determined in either 100 mM Mes/Tris, pH 7.0 containing 1 mM EDTA and 10 mM 2-mercaptoethanol or 100 mM Na phosphate, imM EDTA, 0.1% PEG4000 pH 6.5 or 100 mM Na acetate, pH 5.5 containing 5 mM EDTA and 20 mM cysteine, in each case optionally with […] as stabiliser. The enzyme concentration used was 5 nM. The stock substrate solution was prepared at 10 mM in DMSO. Screens were carried out at a fixed substrate concentration of 60 μM and detailed kinetic studies with doubling dilutions of substrate from 250 μM. The total DMSO concentration in the assay was kept below 3%. All assays were conducted at ambient temperature. Product fluorescence (excitation at 390 nm, emission at 460 nm) was monitored with a Labsystems Fluoroskan Ascent fluorescent plate reader. Product progress curves were generated over 15 minutes following generation of AMC product.
(§1) Potential inhibitors are screened using the above assay with variable concentrations of test compound. Reactions were initiated by addition of enzyme to buffered solutions of substrate and inhibitor. Ki values were calculated according to equation 1
(§2) [formula] where v0 is the velocity of the reaction, V is the maximal velocity, S is the concentration of substrate with Michaelis constant of KM, and/is the concentration of inhibitor.

[2] = biological target: T2, baculovirus-expressed human cathepsin S (Homo sapiens, UniProt P25774); test: Cathepsin S Ki determination; format: biochemical
T2 construct: made in house
T2 sequence (P25774 115-331): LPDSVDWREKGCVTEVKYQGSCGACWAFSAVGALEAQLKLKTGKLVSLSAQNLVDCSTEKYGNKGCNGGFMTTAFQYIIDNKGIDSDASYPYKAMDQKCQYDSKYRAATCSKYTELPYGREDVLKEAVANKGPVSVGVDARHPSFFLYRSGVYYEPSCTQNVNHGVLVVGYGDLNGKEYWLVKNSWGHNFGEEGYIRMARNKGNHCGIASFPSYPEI
Method: 280 μl/well of 12.5% DMSO are added to rows B-H of two columns of a 96 deep well polypropylene plate. 70 μl/well of substrate is added to row A. 2×250 μl/well of assay buffer (100 mM Na phosphate, 100 mM NaCl, pH 6.5) is added to row A, mixed, and double diluted down the plate to row H. 100 μl/well of assay buffer is added to columns 2-5 and 7-12 of 4 rows of a 96 well V bottom polypropylene plate. 200 μl/well of assay buffer is added to columns 1 and 6. […] Add 90 μl assay buffer containing 1 mM DTT and 2 nM cathepsin S to each well of rows B-H and 180 μl to row A. Mix row A using a multichannel pipette and double dilute to row G. Mix row H and read in the fluorescent spectrophotometer. […] The second test compound is added to column 6 of the top row, the third to column 1 of the second row etc. Add 1 μl of comparator to column 6 of the bottom row. Mix column 1 and double dilute to column 5. Mix column 6 and double dilute to column 10. Using an 8-channel multistepping pipette set to 5×10 μl, distribute 10 μl/well of substrate to the 384 well assay plate. Distribute the first column of the substrate dilution plate to all columns of the assay plate starting at row A. The tip spacing of the multichannel pipette will correctly skip alternate rows. Distribute the second column to all columns starting at row B. Using a 12-channel multistepping pipette set to 4×10 μl, distribute 10 μl/well of inhibitor to the 384 well assay plate. Distribute the first row of the inhibitor dilution plate to alternate rows of the assay plate starting at A1. The tip spacing of the multichannel pipette will correctly skip alternate columns. Similarly, distribute the second, third and fourth rows to alternate rows and columns starting at A2, B1 and B2 respectively. Mix 20 ml assay buffer and 20 μl 1M DTT. Add sufficient cathepsin S to give 2 nM final concentration. Using the a distributor such as a Multidrop 384, add 30 μl/well to all wells of the assay plate and read in fluorescent spectrophotomoter such as an Ascent. Fluorescent readings, (excitation and emission wavelengths 390 nm and 460 nm respectively, set using bandpass filters) reflecting the extent of enzyme cleavage of the fluorescent substrate, notwithstanding the inhibitor, are linear rate fitted for each well. Fitted rates for all wells for each inhibitor are fitted to the competitive inhibition equation using SigmaPlot 2000 to determine V, Km and Ki values. Potential inhibitors are screened using the above assay with variable concentrations of test compound. Reactions were initiated by addition of enzyme to buffered solutions of substrate and inhibitor. Ki values were calculated according to equation 1 [formula] where v0 is the velocity of the reaction, V is the maximal velocity, S is the concentration of substrate with Michaelis constant of KM, and/is the concentration of inhibitor.

human cathepsin L = human cathepsin L (Homo sapiens, UniProt P07711); test: Cathepsin L Ki; format: biochemical
Sequence of human cathepsin L (P07711 114-333): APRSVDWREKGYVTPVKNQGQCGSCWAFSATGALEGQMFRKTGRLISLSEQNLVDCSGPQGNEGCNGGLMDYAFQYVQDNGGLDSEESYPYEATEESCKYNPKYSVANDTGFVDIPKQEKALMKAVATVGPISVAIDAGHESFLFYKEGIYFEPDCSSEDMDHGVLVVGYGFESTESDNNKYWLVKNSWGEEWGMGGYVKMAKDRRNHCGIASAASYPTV
Method: The procedure above with the following amendments is used for the determination of Ki for cathepsin L.
The enzyme is commercially available human cathepsin L (for example Calbiochem). The substrate is H-D-Val-Leu-Lys-AMC available from Bahcem. The assay buffer is 100 mM sodium acetate 1 mM EDTA, pH5.5) The DMSO stock (10 mM in 100% DMSO) is diluted to 10% in assay buffer. Enzyme is prepared at 5 nM concentration in assay buffer plus 1 mM dithiothreitol just before use. 2 ul of 10 mM inhibitor made up in 100% DMSO is dispensed into row A. 10 ul of 50 uM substrate (=1/200 dilution of 10 mM stock in DMSO, diluted in assay buffer)
as §1, §2

[3] = Caco-2 permeability (Papp); format: in vitro ADME; conditions: human; Caco-2 assay, standard concentration 10 μM
Method: The transport plate comprises 3 rows of 4 wells.
Determination of the cumulative fraction absorbed, FAcum, versus time. FAcum is calculated from: […]
A linear relationship should be obtained.

[4] = Metabolic stability in human hepatic cytosol assay; format: in vitro ADME; conditions: 2 μM in pooled human liver cytosol, 1 mg/mL protein, pH 7.4, 37°, 1 mM NADPH
Method: Compounds of the invention and the indicated comparative examples were tested for metabolic stability in a cytosol assay in which the compounds were incubated with commercially available human hepatic cytosol fractions and the disappearance of the compound monitored by HPLC or LC/MS. Pooled human liver cytosol fractions are less likely to represent outlier individuals than blood from a single individual and can be stored frozen, unlike whole blood. The cytosol assay thus provides a consistent assay testbed as a guide to the stability of a compound in the in vivo environment, such as when exposed to whole blood.
In short, test compounds (2 μM) are incubated in pooled human liver cytosol (Xenotech LLC Lenexa US, 1 mg/mL protein in 0.1M phosphate buffer, pH 7.4) at 37° centigrade over a one hour period. The incubations are initiated by the addition of 1 mM NADPH co-factor. Timed sub-samples were taken at 0, 20, 40 and 60 minutes and “crash precipitated” by the addition of 3 volumes of ice-cold acetonitrile. The samples were centrifuged at reduced temperature and the supernatants were separated and analyzed by LC-MS-MS.

[5] = representative values from specific batches of compound/enzyme/assay occasion

## CC(C)C[C@H](NC(=O)c1ccc(-c2nc(N3CCN(C)CC3)sc2F)cc1)C(=O)N1C[C@@H](Cl)[C@H]2OCC(=O)[C@H]21 [Example 12, N-[1-(6-Chloro-3-oxo-hexahydro-furo[3,2-b]pyrrole-4-carbonyl)-3-methyl-butyl]-4-[5-fluoro-2-(4-methyl-piperazin-1-yl)-thiazol-4-yl]-benzamide]
[1]; Table 1, class symbols
  Ki: < 50 nM
[1]; [5]
  Ki: 1.8 nM
[2]; Table 1, class symbols
  Ki: > 10 µM
[2]; [5]
  Ki: 11 µM
Human cathepsin L; Table 1, class symbols
  Ki: 1000 to 5000 nM
Human cathepsin L; [5]
  Ki: 1600 nM
[3]
  Papp at 120 min, 10 μM: 10 ×10⁻⁶ cm/s
[4]
  half-life at 2 μM: 270 min

— US7893067B2, “Cysteine protease inhibitors” (Medivir AB, priority 2007, dated 2011)
